Where “and” joins values, the source holds several entries; their conditions need not be identical. Equal values may be shown once. Read-outs that look alike come from different tables or passages of the source. Peptide text beside a SMILES is read from it. * marks the point of attachment. X1 = FC(F)CO*
What was measured:
Assay type in all cases: physicochemical
[1] = Partitioning between octan-1-ol and water (NMR detection); conditions: for logP at 24 h: 298 K, 24 hours partitioning, NMR; for ΔlogP vs 4: relative to compound 4
Procedure: To characterize the lipophilicity, esters 1–5 were subjected to 24 hours of partitioning between octan-1-ol and water at 298 K. The resulting partition is illustrated in Figure 3. […] The lipophilicity of 2,2-difluoroethyl derivative 4 is nearly identical to that of parent ethyl ester 2, and the relative difference in the logP from the increase (5 vs 4, ΔlogP = +0.53 ± 0.13) and decrease (3 vs 4, ΔlogP = −0.45 ± 0.13) in the number of fluorine atoms are equivalent to one methyl group difference (2 vs 1, ΔlogP = +0.44 ± 0.08). The amplitude of the change is similar to that reported recently for the corresponding fluorinated ethanols. Importantly, C-terminal esterification maintains a much higher lipophilicity compared with the C-terminal amide 7 (Table 1).
To 4–5 mg analyte, octan-1-ol (1.00 mL) and deionized water (1.00 mL) were added. The mixture was shaken gently at ambient temperature (298 ± 2 K) for 24 hours. Each phase (200 μL) was sampled using identical NMR tubes, and acetonitrile-d3 (300 μL) was added to each sample. The NMR measurements were performed by ^1H or ^19F detection at 298 K using calibrated 90-degree pulses and one-scan experiments in order to ensure complete pre-relaxation. The same acquisition parameters were used for the octan-1-ol and water samples; for processing, only the zero phase was adjusted. The spectra were baseline corrected, and equivalent resonances were integrated. The ratio between the signal intensities was considered as the partitioning constant. The partitioning experiments were performed in triplicate. Subsequent addition of water and octan-1-ol was performed in forward and reverse manner, and the resulting partitioning constants were identical within experimental error.

[2] = Amide rotational thermodynamics and kinetics (trans/cis isomerism) by NMR / EXSY; conditions: for Ktrans/cis in C6D6: C6D6 (ε 2.27); for Ktrans/cis in C6D6 / Ktrans/cis in CD2Cl2 / Ktrans/cis in CD3CN / Ktrans/cis in CD3OD / Ktrans/cis in CDCl3 / Ktrans/cis in D2O: 298 K; for Ktrans/cis in C6D6 / Ktrans/cis in D2O: analyte 50 ± 10 mM; for k∙10^3 cis→trans in C6D6 / k∙10^3 trans→cis in C6D6: C6D6, 298 K; for k∙10^3 cis→trans in C6D6 / k∙10^3 trans→cis in C6D6 / k∙10^3 cis→trans in D2O / k∙10^3 trans→cis in D2O: EXSY NMR, amide rotation, value is k∙10^3; for Ktrans/cis in CD2Cl2: CD2Cl2 (ε 8.93); for Ktrans/cis in CD3OD: CD3OD (ε 32.7); for Ktrans/cis in CDCl3: CDCl3 (ε 4.81); for Ktrans/cis in D2O: D2O (ε 80.1), 1H/19F NMR; for k∙10^3 cis→trans in D2O / k∙10^3 trans→cis in D2O: 310 K
Source text: For 1–5, we found the trans/cis ratios ≈ 5 for all five esters when measured in aqueous medium; the kinetic parameters of the amide rotation were also nearly identical (Table 2). We then noticed that the trans/cis ratios measured for the fluorine-labeled esters 3–5 in nonpolar solvents (such as benzene) were systematically higher relative to the reference compounds 1 and 2. We tested the relative increase in the trans-amide preference ΔΔG as a function of solvent (Equation 4) and found a dependence of this parameter on the dielectric constant, as would be expected from an electrostatic interaction between the polar alkoxy group and the amide moiety (Figure 4).
The amide rotational thermodynamic and kinetic measurements were performed by NMR as described in [50, 68]. The equilibrium ratio between the rotameric states was obtained from the ^1H, ^19F and ^19F{^1H} (inverse-gated decoupling) spectra at 298 K by integration. The kinetics was measured in ^1H and/or ^19F{^1H} z-cross-relaxation experiments at either 310 K (for deuterium oxide samples) or 298 K (for benzene samples). The Jαβ-coupling values were obtained by visual inspection of the α-CH resonances in the ^1H NMR spectra, and the accuracy was defined by the length of the time domain spectrum at approximately 0.3 Hz. The semi-empirical calculations were performed by using the PM6 algorithm from the MOPAC package. DFT geometry optimization of the 5 amide rotamers was performed using B88-PW91 GGA with the DZVP basis set.

[3] = Hydrolytic stability of esters 1–5 in aqueous potassium phosphate buffer, monitored by 1H and 19F NMR; conditions: for half-life at 0.5 mM: aqueous potassium phosphate buffer; for τ½, min (aq buffer): ester hydrolysis
Source text: The kinetic stability of the ester linkage in the aqueous medium is of critical importance, as it further defines the time window for the reactions with the corresponding esters under the biologically relevant conditions of aqueous buffers. Hydrolysis of the C-terminal esters has been fairly well described in the literature, indicating the hydrolysis occurs via a pseudo-first order reaction in a buffered medium assuming that [HO^−] is constant (Equations 1–3): […]
Next, we determined the half-life values following the above mentioned kinetic model for esters 1–5 in aqueous medium at pH 11 and 298 K (Figure 2). […] For the subsequent fluorine atoms, the hydrolysis rate increased by a factor of 3–4 for each appended fluorine atom. […] Extrapolation to pH 8.0 gives a value of 107 ± 28 hours. (This procedure requires multiplication by 1000.) We experimentally determined the half-life of 5 at pH 8 to be 102 ± 2 hours, which agrees well with the extrapolation. The mutual consistency of the values determined with different kinetic modes (minutes at pH 11, days at pH 8) provides a good indication of their accuracy.
Aqueous potassium phosphate buffer (100 mM) at pH 11.0 or 8.0 was mixed with 1:10 (v/v) deuterium oxide to give 550 μL of 91 mM buffer. The analyte 1–5 was added from a 200 mM stock solution in deuterium oxide to give 0.5 mM analyte. The first NMR spectra were collected within 4 min following addition of the analyte. The monitoring was continued by recording ^1H and ^19F NMR spectra at regular time points until >50% hydrolysis. Ambient temperature was maintained at 298 ± 1 K. The decay of the integral intensity of the analyte was quantified by integration. Plotting the logarithm of the intensity versus time delivered the kinetic constant, which was converted to the half-life time (squared correlation coefficient > 0.90). The experiments were performed in triplicate.

[4] = Hydrolysis of C-terminal 2,2-difluoroethyl esters of oligopeptides in buffered deuterium oxide by 19F NMR; conditions: for τ½ of ester hydrolysis (value in brackets, alternative kinetic model) / τ½ of ester hydrolysis (value outside brackets): buffered deuterium oxide, pH 7.0, 298 K; for τ½ of ester hydrolysis (value in brackets, alternative kinetic model): first (zero) order kinetic model; for τ½ of ester hydrolysis (value outside brackets): Equation 7 (zero order), first (zero) order model; for charge-induced hydrolysis acceleration factor vs 8b: pH 7, 9b, 10b vs 8b
Source text: Finally, we tested hydrolytic stability in esterified peptides 8b, 9b and 10b by observing hydrolysis of the ester using ^19F NMR in buffered deuterium oxide (pH 7). We expected pseudo-first order kinetics as for the hydrolysis of esters 1–5 at pH 11. Nonetheless, for the peptide esters 8b, 9b and 10b, the experimental decay (Figure 7) of the ester concentration resembled pseudo-zero order kinetics, which was also observed for another amino acid ester hydrolysis not shown here.
Circular dichroism spectra were recorded in a 1 mm quartz cell at 298 K in methanol (HPLC grade) or aqueous potassium phosphate buffer (50 mM, pH 7.01 at 297 K). The peptide concentration was 100 μM as determined gravimetrically. The mean residue absorption difference Δε was calculated assuming 6 residues for peptides 8a–c, 10a–c and 3 residues for peptides 9a–c. Hydrolysis was measured in deuterium oxide solution of a 150 mM potassium phosphate buffer. The buffer pH 7.01 was adjusted in water at 298 K. It was then lyophilized, then dissolved in deuterium oxide. The peptides were dissolved in the buffer, and the resulting samples were kept at 298 ± 2 K, while the ^19F NMR measurements were conducted at several time points. The starting concentrations of the analytes were 8 mM for 8b, 5 mM for 9b and 2.5 mM for 10b. The half-life was calculated using the first (zero) order kinetic model.

[5] = pH 11.0, 298 K, pseudo-first order

| SMILES | logP at 24 h ([1]; octan-1-ol/water) | Ktrans/cis in C6D6 [2] | k∙10^3 cis→trans in C6D6 [2] | k∙10^3 trans→cis in C6D6 [2] | Ktrans/cis in CD2Cl2 [2] | Ktrans/cis in CD3CN [2] | Ktrans/cis in CD3OD [2] | Ktrans/cis in CDCl3 [2] | Ktrans/cis in D2O [2] | k∙10^3 cis→trans in D2O [2] | k∙10^3 trans→cis in D2O [2] | τ½, min (aq buffer) [3, 5] | τ½ of ester hydrolysis (value in brackets, alternative kinetic model) [4] | further results |
| --- | --- | --- | --- | --- | --- | --- | --- | --- | --- | --- | --- | --- | --- | --- |
| CC(=O)N1CCC[C@H]1C(N)=O [compound 7, reference compound] | -1.57 ± 0.1 |  |  |  |  |  |  |  |  |  |  |  |  |  |
| CC(=O)N1CCC[C@H]1C(=O)OCC(F)(F)F [compound 5, 2,2,2-Trifluoroethyl N-acetylprolinate] | 0.55 | 10.04 ± 0.15 | 477 ± 13 s^−1 | 48 ± 2 s^−1 | 7.07±0.11 | 5.65±0.05 | 4.49±0.05 | 6.65±0.18 | 5.48 ± 0.14 | 35 ± 5 s^−1 | 6 ± 1 s^−1 | 6.4 ± 1.7 min |  | ΔlogP vs 4 ([1]; octan-1-ol/water): +0.53 ± 0.13; half-life at 0.5 mM ([3]; pH 8, extrapolated from pH 11 value (multiplication by 1000), read-out: half-life, extrapolation to pH 8.0 (converted)): 107 ± 28 h; half-life at 0.5 mM ([3]; pH 8, pH 8, 298 K, read-out: half-life at pH 8, experimentally determined (converted)): 102 ± 2 h; τ½, min (aq buffer) ([3]; pH 8.0, 298 K): 6112 ± 70 min |
| CC(=O)N1CCC[C@H]1C(=O)N1CCC[C@H]1C(=O)N1CCC[C@H]1C(=O)N1CCC[C@H]1C(=O)N1CCC[C@H]1C(=O)N1CCC[C@H]1C(=O)OCC(F)F [peptide 8b, Ac(Pro)6OCH2CHF2] (Ac-PPPPPP-X1) |  |  |  |  |  |  |  |  |  |  |  |  | 139 ± 20 days |  |
| CC(=O)N[C@@H](CCCCN)C(=O)N[C@@H](CCCCN)C(=O)N[C@@H](CCCCN)C(=O)OCC(F)F [peptide 9b, Ac(Lys)3OCH2CHF2∙3HCl] |  |  |  |  |  |  |  |  |  |  |  |  | 4.5 ± 0.5 days | τ½ of ester hydrolysis (value outside brackets) [4]: 5.0 ± 0.3 days and 5.0 ± 0.5 days; charge-induced hydrolysis acceleration factor vs 8b [4]: ≈ 30 |
| CCOC(=O)C1CCCN1C(C)=O (stereo not drawn) [compound 2, Ethyl N-acetylprolinate] | 0 | 4.67 ± 0.03 | 309 ± 14 s^−1 | 67 ± 2 s^−1 | 3.52±0.03 | 3.58±0.04 | 3.49±0.04 | 3.20±0.04 | 4.60 ± 0.08 | 20 ± 5 s^−1 | 6 ± 1 s^−1 | 603 ± 58 (pH 11.0) min |  | ΔlogP vs 1 ([1]; octan-1-ol/water, relative to compound 1): +0.44 ± 0.08 |
| CC(=O)N1CCC[C@H]1C(=O)OCCF [compound 3, 2-Fluoroethyl N-acetylprolinate] |  | 6.80 ± 0.04 | 348 ± 11 s^−1 | 52 ± 2 s^−1 | 4.77±0.10 | 4.12±0.17 | 3.61±0.03 | 4.44±0.20 | 4.74 ± 0.04 | 30 ± 2 s^−1 | 7 ± 1 s^−1 | 80 ± 14 (pH 11.0) min |  | logP at 24 h [1]: -0.43 ± 0.07; ΔlogP vs 4 ([1]; octan-1-ol/water): −0.45 ± 0.13 |
| CC(=O)N[C@@H](CCCCN)C(=O)N[C@@H](CCCCN)C(=O)N[C@@H](CCCCN)C(=O)N[C@@H](CCCCN)C(=O)N[C@@H](CCCCN)C(=O)N[C@@H](CCCCN)C(=O)OCC(F)F [peptide 10b, Ac(Lys)6OCH2CHF2∙6HCl] |  |  |  |  |  |  |  |  |  |  |  |  | 3.7 ± 0.3 days | τ½ of ester hydrolysis (value outside brackets) [4]: 4.0 ± 0.3 days; charge-induced hydrolysis acceleration factor vs 8b [4]: ≈ 30 |
| CC(=O)N1CCC[C@H]1C(=O)OCC(F)F [compound 4, 2,2-Difluoroethyl N-acetylprolinate] | 0.02 | 9.06 ± 0.26 | 430 ± 17 s^−1 | 47 ± 2 s^−1 | 6.57±0.14 | 4.85±0.07 | 4.12±0.03 | 6.29±0.22 | 4.95 ± 0.05 | 32 ± 4 s^−1 | 7 ± 1 s^−1 | 19.7 ± 2.5 (pH 11.0) min |  | half-life at 0.5 mM ([3]; pH 7, extrapolated from pH 11 value, read-out: half-life extrapolated to pH 7.0 (converted)): 3290 h |

Reference: paper PMC5704756, “Hydrolysis, polarity, and conformational impact of C-terminal partially fluorinated ethyl esters in peptide models” (Beilstein Journal of Organic Chemistry, 2017)
